Laboratory results taken from paper PMC11066871 (Journal of the American Chemical Society, 2024).

Key:
anti-pS2 antibody 2G1 [1] = experiment: Competitive ELISA with immobilized phosphopeptide 35; format: binding, rabbit; conditions: for LogIC50, best-fit value (Table S4, 2G1): log10 of competitor concentration, One site-Fit logIC50; for competition against immobilized peptide 35 for antibody binding (in words): peptide in solution, increasing concentrations
Experimental: (§1) The 100% binding value refers to binding of antibody to immobilized 35 in the absence of competitor.
(§2) A stock solution in immobilization buffer (NaH2PO4 200 mM, pH 7.4 ) was prepared for every test peptide. The […]
(§3) withdrawn and diluted step w ise with immobilization buffer from high µM range to 300 nM. Stock solution s an d sample s w ere stored at - 8 0°C.
(§4) - Thawing o f all the sampl es at room temperature for 30 min utes. The samples were quickly centrifuged and carefully mi xed before being used.
(§5) - Plating of the samples (100 µl) into a black non-binding 96-well plate that was previously conditioned overnight with wash buffer (NaH2PO4 200 mM, BS A 1% w/ v, Tween -20 0. 05%, pH 7. 4) and washed 3 times with the immobilization buffer.
(§6) - Sample s wer e transferred wit h a multi-channel pip ette to the clear Ni2+-coated 96 -well p late. Thi s plate-to-plate transfer provided full control of the timing of the Ni2+ -His6 interaction.
(§7) - Incubation for one hour at 25°C.
(§8) - Preparation of the primary antibody dilutions from the stock and then subsequent serial dilutions using […]
(§9) - Wash ing the plate 5 tim es for one minute with wa sh buffer (200 µl) .
(§10) - Plating of the primary antibody (100 µl) and incubation of the primary antibody for 1 hour at 37°C.
(§11) - Preparation of the dilution and plating (100 µl) of the secon dary antibody.
(§12) - Incubation for 30 minutes at 37°C.
(§13) - Wash ing the plate 5 times for one minute with wa sh buffer (200 µl) .
(§14) - Plating of the freshly prepared TMB-H 2O2 solution (1:1, 10 0 µl) .
(§15) - TMB solution incubation for 20 minutes at 25 °C.
(§16) - Plating of the Stop solution (2 M H2SO4, 1 00 µL).
(§17) - Incubation at 25°C for 1 minute.
(§18) - Plate reading at 450 nm, nor mal aperture, 1 second as m e asurem ent time . […]
(§19) for the primary and secondary antibodies. The average value of the optical density of the blanks was subtracted from the OD of the analyte s in the s ame plate befor e data analysi s. All the e xperi ments have be en perfor med a s biologi cal triplicate unless otherwise stated. […]
(§20) in each triplicate to provide randomization on the plate. […]
(§21) After the incubation time and the wash, the seri es of dilutions ( 300, 100, 50, 25, 1 2.5, 6.2 5, 2. 1 and 0.7 nM) of the co mpetit ors wa s plated, all […]
(§22) the samples in half the volu me (50 µL) and double the concentration. Incubation for 5 minutes at 25°C.
(§23) Plating of the primary antibody in half the volume (50 µL) and double the concentration. The final volume in each well was 100 µL, and the final concentration of the primary antibody was 1:1000. On the same plate, a highly concentrated sample of each competitor (1.2 µM) was also plated to evaluate p ossible unspecific

[2] = tested on: anti-pS2 antibody EPR18855; experiment: as above; format: binding, rabbit; conditions: for LogIC50, best-fit value (Table S4, EPR18855): log10 of competitor concentration, One site-Fit logIC50; for competition against immobilized peptide 35 for antibody binding (in words): peptide in solution, increasing concentrations
Experimental: as §1, §2, §3, §4, §5, §6, §7, §8, §9, §10, §11, §12, §13, §14, §15, §16, §17, §18, §19, §20, §21, §22, §23

anti-pS2 antibody E1Z3G [3] = experiment: as above; format: binding, rabbit; conditions: for LogIC50, best-fit value (Table S4, E1Z3G): log10 of competitor concentration, One site-Fit logIC50; for competition against immobilized peptide 35 for antibody binding (in words): peptide in solution, increasing concentrations
Experimental: as §1, §2, §3, §4, §5, §6, §7, §8, §9, §10, §11, §12, §13, §14, §15, §16, §17, §18, §19, §20, §21, §22, §23

anti-pS2 antibody 2G1 [4] = experiment: Indirect ELISA, relative binding at single antibody dilution; parameters: species or system rabbit; conditions: immobilized peptide
Experimental: (§24) To allow rapid screening, the His6-tagged CTD peptides were immobilized onto Ni^2+-coated 96-well microtiter plates. The immobilized peptides were incubated with increasing concentrations of the anti-pS2 antibody E1Z3G. […] Next, positional scanning was performed with anti-pS2 antibodies EPR18855 (Abcam) and 2G1 (Thermo Fisher/Invitrogen). Here, and in subsequent experiments, we refrained from obtaining titration curves and instead determined the fold change of antibody binding relative to that of a reference binder (Figure 4B).
(§25) Figure 4 (A) Titration of the E1Z3G primary antibody to immobilized hexaheptade peptides. […] (C) Probing chelate and cluster effects upon binding of EPR18855, 2G1, and E1Z3G mAbs to hexaheptad peptides containing two or six pSer2 residues. […] 100 μL of TMB–H2O2 solution (1:1), 20 min, 25 °C, ii. 100 μL of 2 M H2SO4, 1 min, 25 °C. Washes and dilution of the antibodies were performed with NaH2PO4, 200 mM BSA (1% w/v), and 0.05% Tween-20 at pH 7.4. Assays were performed in triplicate with randomized positions of probes or antibodies.
as §2, §3, §4, §5, §6, §7, §8, §9, §10, §11, §12, §13, §14, §15, §16, §17, §18, §19, §20
(§26) - Relative affinity mea suremen ts: 3 serial dilutions o f the pri mary mAbs wer e used in the experi ment fro m […]
(§27) nM). The relati ve binding valu es wer e g enerated by dividing the OD value for each probe by the OD value of the referenc e peptide tested in the sa me plat e, with th e sa me conditions. […]

[5] = tested on: anti-pS2 antibody EPR18855; experiment: as above; parameters: species or system rabbit; conditions: immobilized peptide
Experimental: as §24, §25, §2, §3, §4, §5, §6, §7, §8, §9, §10, §11, §12, §13, §14, §15, §16, §17, §18, §19, §20, §26, §27

anti-pS2 antibody E1Z3G [6] = experiment: as above; parameters: species or system rabbit; conditions: immobilized peptide
Experimental: as §24, §25, §2, §3, §4, §5, §6, §7, §8, §9, §10, §11, §12, §13, §14, §15, §16, §17, §18, §19, §20, §26, §27

Substance | LogIC50, best-fit value (Table S4, 2G1) (anti-pS2 antibody 2G1 [1]) | competition against immobilized peptide 35 for antibody binding (in words) (anti-pS2 antibody 2G1 [1]) | LogIC50, best-fit value (Table S4, EPR18855) [2] | competition against immobilized peptide 35 for antibody binding (in words) [2] | LogIC50, best-fit value (Table S4, E1Z3G) (anti-pS2 antibody E1Z3G [3]) | competition against immobilized peptide 35 for antibody binding (in words) (anti-pS2 antibody E1Z3G [3]) | recognition by 2G1 (in words) (anti-pS2 antibody 2G1 [4]) | recognition by EPR18855 (in words) [5] | binding enhancement of E1Z3G relative to 35 (anti-pS2 antibody E1Z3G [6]) [fold]
Ac- YSPTSPS YSPTSPS YSPTSPS YSPTSPS YSPTSPS YSPTSPS -NH2 [compound 3, Ac-hexaheptad CTD peptide amide phosphorylated at each Thr4] | ~ 8.143 | not able to compete | 8.303 | not able to compete | -5.866 | not able to compete |  |  | 
Ac- YSPTSPS YSPTSPS YSPTSPS YSPTSPS YSPTSPS YSPTSPS -NH2 [compound 4, Ac-hexaheptad CTD peptide amide phosphorylated at each Ser5] | 7.562 | not able to compete | 1.287 | not able to compete | ~ -3.629 | not able to compete |  |  | 
H6-NH-(CH2)2-PEG6-CO-YSPTSPS-YpSPTSPS-(YSPTSPS)4-YAPTSPS-(YSPTSPS)-YpSPTSPS-(YSPTSPS)3 [compound 27, dodecaheptad CTD peptide, pSer2 in heptads 2 and 9] |  |  |  |  |  |  | remained at the level of the monovalent phosphopeptide | remained at the level of the monovalent phosphopeptide | 
H6-NH-(CH2)2-PEG6-CO-YSPTSPS-YpSPTSPS-(YSPTSPS)4-YAPTSPS-(YSPTSPS)2-YpSPTSPS-(YSPTSPS)2 [compound 28, dodecaheptad CTD peptide, pSer2 in heptads 2 and 10] |  |  |  |  |  |  | remained at the level of the monovalent phosphopeptide | remained at the level of the monovalent phosphopeptide | 
HHHHHH-NH-(CH2)2-(OCH2CH2)6-CO-YpSPTSPS-YpSPTSPS-YpSPTSPS-YpSPTSPS-YpSPTSPS-YpSPTSPS-NH2 [compound 7, His6-PEG6 hexaheptad CTD peptide, hexa-pSer2] |  |  |  |  |  |  | did not enhance binding | did not enhance binding | 5
